Source: article PMC8766756, “Insights on Cancer Cell Inhibition, Subcellular Activities, and Kinase Profile of Phenylacetamides Pending 1H-Imidazol-5-One Variants” (Frontiers in Pharmacology, 2022)
In brackets after ≈: the same amount, converted by molar mass. Entries after “also recorded” stand apart in the source; their conditions may differ. Like-named read-outs stand apart in the source and are kept apart here.

Key:
NB4 leukemia cell line = assay: CellTiter-Blue cell viability assay; format: cell-based; conditions: Homo sapiens, NB-4, 48 h
Method: (§1) The compounds were screened for their anticancer activities against a variety of cancer cell lines. The cytotoxic effect of the compounds was evaluated using the sulforhodamine B (SRB) cytotoxicity assay for breast cancer line (MCF7) and prostate cancer cell line (PC3) ([Vichai and Kirtikara, 2006]; [Rana et al., 2021]) and 3-(4,5-dimethylthiazol-2-yl)-2,5-diphenyl-2H-tetrazolium bromide (MTT) assay for the colon cancer (HCT116) cell lines ([El-Huneidi et al., 2020]). The CellTiter-Blue® cell viability assay was performed on the various leukemia cell lines, HL60, NB4, and KG1a cells ([Akter et al., 2019]). The IC50 values are illustrated in Table 1.
(§2) HL60, NB4, and KG1a were purchased from CLS Cell Line Service GmbH (Eppelheim, Germany). All cell lines were cultured in RPMI-1640 medium supplemented with 10% FBS (Thermo Fisher Scientific) and ciprofloxacin (10 μg/ml; Cipla Limited; Mumbai, India), at 37°C with 5% CO2 in a humidified incubator.
(§3) The CellTiter-Blue® Cell Viability assay was acquired from Promega Corporation (Madison, WI, USA). The cell viability assay was performed as follows: the cells (10^4/well) were incubated with a concentration gradient of the test compounds ranging from 0.01 to 100 μM, in 96-well plates for 48 h at 37°C. Subsequently, 20 µL of the CellTiter-Blue® Cell Viability reagent was added to each well and incubated for an additional 2 h for the development of fluorescence. The fluorescence emission was measured at 590 nm using the SpectraMax® i3x Multi-Mode Microplate Reader (Molecular Devices, LLC; San Jose, CA, USA.) and plotted against the drug concentrations to determine the IC50 of the test compounds.

HL60 leukemia cell line = assay: CellTiter-Blue cell viability assay; format: cell-based; conditions: Homo sapiens, HL-60, 48 h, read-out: IC50 ± SEM HL60
Method: as §1, §2, §3

KG1a leukemia cell line = assay: CellTiter-Blue cell viability assay; format: cell-based; conditions: Homo sapiens, KG-1a, 48 h
Method: as §1, §2, §3

[1] = Maximum kinetic aqueous solubility; format: physicochemical; conditions: phosphate buffer, pH 7.4, aqueous buffer, kinetic from dmso stock
Method: Solubility assays were performed using the Millipore MultiScreen® HTS-PFC Filter Plates designed for the solubility assays (EMD Millipore, Billerica, MA). Assays were run in triplicate. The 96-well plates consist of two chambers separated by a filter. Liquid handling was performed using JANUS® Verispan and MTD workstations (Perkin Elmer, Waltham, MA). About 4 µL of the KIM-161 solution (10 mM in DMSO) was added to 196 µL of phosphate buffer (45 mM potassium phosphate, 45 mM sodium acetate, 45 mM ethanolamine, pH = 7.4) in the top chamber to give a final DMSO concentration of 2% and a theoretical drug concentration of 200 µM. The plates were gently shaken for 90 min and then subjected to vacuum. The insoluble drug was captured on the filter. 160 µL of the filtrate was transferred to 96-well Griener UV-Star® analysis plates (Sigma-Aldrich, St. Louis, MO) containing 40 µL of acetonitrile. The test compound concentration in the filtrate is measured by UV absorbance on a Spectromax® Plus microplate reader (Molecular Devices, Sunnyvale, CA) using SoftMax Pro Software v.5.4.5. The absorbances at five wavelengths (280, 300, 320, 340, and 360 nm) were summed to generate the UV signal. Standard curves were generated by adding 4 µL of five concentrations of the test compound in DMSO to 40 µL of acetonitrile in UV Star plates followed by 156 µL of the appropriate solubility medium. […]

[2] = Reactivity with GSH (LC/MS); format: physicochemical; conditions: 37°C
Text: Because KIM-161 contains α,β-enone moiety, it was investigated for its reactivity with glutathione (GSH), an important cellular component for maintaining the desired redox balance ([Aquilano et al., 2014]).
GSH and solvents were purchased from Sigma-Aldrich. The LC/MS system is composed of an Agilent 1200 HPLC system, a solvent delivery module, a quaternary pump, an autosampler, and a column compartment (Agilent Technology, Germany). The column effluent was connected to an Agilent 6320 Ion Trap-ESI-MS. The column heater was set to 25 ± 2°C. The control of the HPLC system and data processing were performed using ChemStation (Rev. B.01.03 SR2-204) and 6300 Series Trap Control version 6.2 Build No. 62.24 (Bruker Daltonik GmbH). The analytes were separated using an Agilent Zorbax Extend-C18 column (80Å, 150 mm length × 4.6 mm, i.d., 5 μm) and Agilent-Zorbax Extend-C18 pre-column (Agilent Technologies, Palo Alto, CA, USA). The general MS adjustments were set as follows: capillary voltage, 4000 V; nebulizer, 35 psi; drying gas, 12 L/min; desolvation temperature, 350°C; ion charge control smart target, 150,000; and max. accumulation time, 150 ms. The Auto-MSn positive mode was applied. The mobile system was isocratic elution using 55% acetonitrile and 45% water containing 0.1% formic acid (w/v). […]

COc1ccc(/C=C2\N=C(C)N(c3ccc(CC(=O)NCc4ccccc4)cc3)C2=O)cc1 [Compound 4c, (Z)-N-Benzyl-2-(4-(4-(4-methoxybenzylidene)-2-methyl-5-oxo-4,5-dihydro-1H-imidazol-1-yl)phenyl)acetamide]
IC50 (NB4 leukemia cell line): 275 nM
IC50 (HL60 leukemia cell line): 362 ± 20 nM
IC50 (KG1a leukemia cell line): 893 nM
solubility at 90 min ([1]; Max solubility in 2% DMSO/PBS, kinetic, pH 7.4): 19.9 µM (≈ 8.75 µg/mL)
solubility at 90 min ([1]; read-out: solubility): ~20 µM (≈ 8.79 µg/mL)
Reactivity with GSH ([2]; pH 7.5, up to 48 h, LC/MS, listed as KIM-161): did not show any significant reaction with GSH; also recorded: could not react with GSH; also recorded: No reaction
unreacted compound (UV spectrum) ([2]; after 48 h with GSH): > 98%
